Results reported in ChEMBL document CHEMBL1147964, “Double mode of inhibition-inducing interactions of 1,4-naphthoquinone with urease: arylation versus oxidation of enzyme thiols” (Bioorg Med Chem, 2007).

How the values were obtained:
[1] = target: Urease (Canavalia ensiformis) (UniProt P07374); test: Inhibition of jack bean urease assessed as residual activity at 85 uM
[2] = target: Urease (Canavalia ensiformis) (UniProt P07374); test: Inhibition of jack bean urease assessed as residual activity at 50 uM
[3] = target: Urease (Canavalia ensiformis) (UniProt P07374); test: Inhibition of jack bean urease assessed as residual activity at 30 uM
[4] = target: Urease (Canavalia ensiformis) (UniProt P07374); test: Reactivation of jack bean urease activity in presence of DTT after 40 mins

Urease (Canavalia ensiformis), sequence (P07374 whole entry, looked up): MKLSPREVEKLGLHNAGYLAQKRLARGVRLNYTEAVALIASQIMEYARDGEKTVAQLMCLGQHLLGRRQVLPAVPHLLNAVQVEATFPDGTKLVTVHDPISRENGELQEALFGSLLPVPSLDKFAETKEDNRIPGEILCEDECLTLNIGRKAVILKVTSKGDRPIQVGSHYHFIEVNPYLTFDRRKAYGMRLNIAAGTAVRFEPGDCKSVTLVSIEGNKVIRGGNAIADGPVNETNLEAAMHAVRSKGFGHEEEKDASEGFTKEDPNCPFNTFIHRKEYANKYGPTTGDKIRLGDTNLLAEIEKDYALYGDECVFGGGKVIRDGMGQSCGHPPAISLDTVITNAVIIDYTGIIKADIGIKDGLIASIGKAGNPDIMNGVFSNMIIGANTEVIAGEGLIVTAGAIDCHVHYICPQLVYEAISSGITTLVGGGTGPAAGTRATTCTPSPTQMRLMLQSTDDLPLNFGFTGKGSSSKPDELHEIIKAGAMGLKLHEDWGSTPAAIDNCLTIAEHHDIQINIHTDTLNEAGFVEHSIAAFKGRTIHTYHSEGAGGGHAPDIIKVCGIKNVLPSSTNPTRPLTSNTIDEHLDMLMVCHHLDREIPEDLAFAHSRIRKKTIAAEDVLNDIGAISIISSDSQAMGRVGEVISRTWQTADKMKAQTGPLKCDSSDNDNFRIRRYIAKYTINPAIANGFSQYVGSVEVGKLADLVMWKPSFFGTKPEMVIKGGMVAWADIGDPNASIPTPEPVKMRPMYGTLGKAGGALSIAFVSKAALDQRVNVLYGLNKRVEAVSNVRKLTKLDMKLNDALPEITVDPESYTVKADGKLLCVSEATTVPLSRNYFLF

SMILES: O=C1C=CC(=O)c2ccccc21
- Activity [1]: 7%
- Activity [2]: 24%
- Activity [3]: 40%
- Activity [4]: 40%
